As a reminder, the IC50 is the concentration that gives 50% inhibition.

T1 sequence (Q14831 35-922 isoform Q14831-2 limits assumed): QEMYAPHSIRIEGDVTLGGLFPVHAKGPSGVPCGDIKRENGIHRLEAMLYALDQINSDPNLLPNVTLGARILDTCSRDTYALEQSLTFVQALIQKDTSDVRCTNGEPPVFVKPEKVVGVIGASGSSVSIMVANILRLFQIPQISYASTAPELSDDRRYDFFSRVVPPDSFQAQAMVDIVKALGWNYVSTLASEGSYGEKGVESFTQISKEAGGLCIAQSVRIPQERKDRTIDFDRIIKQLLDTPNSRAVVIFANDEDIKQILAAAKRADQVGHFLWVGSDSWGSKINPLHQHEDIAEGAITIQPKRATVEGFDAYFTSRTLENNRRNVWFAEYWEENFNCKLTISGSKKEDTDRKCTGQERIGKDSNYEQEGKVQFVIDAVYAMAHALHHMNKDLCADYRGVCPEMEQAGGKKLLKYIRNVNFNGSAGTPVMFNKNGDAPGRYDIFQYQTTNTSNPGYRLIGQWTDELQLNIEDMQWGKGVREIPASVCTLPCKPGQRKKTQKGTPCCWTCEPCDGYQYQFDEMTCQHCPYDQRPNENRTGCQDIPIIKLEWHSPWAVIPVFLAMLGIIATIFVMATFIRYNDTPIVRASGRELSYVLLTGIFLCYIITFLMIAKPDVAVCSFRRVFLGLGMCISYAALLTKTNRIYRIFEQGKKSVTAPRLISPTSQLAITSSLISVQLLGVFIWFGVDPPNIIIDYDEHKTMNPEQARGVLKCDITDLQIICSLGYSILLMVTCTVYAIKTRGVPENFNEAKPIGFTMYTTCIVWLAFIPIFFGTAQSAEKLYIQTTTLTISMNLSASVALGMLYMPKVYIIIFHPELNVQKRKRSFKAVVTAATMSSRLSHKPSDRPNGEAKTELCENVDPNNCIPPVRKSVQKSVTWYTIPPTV

This assay addresses T1, human mGlu7 (Homo sapiens, UniProt Q14831).
T1 construct: expressed in transfected cells
The experiment in a line: Fluorescent cell based Ca2+ mobilization assay (FLIPR) on HEK-293 cells expressing human mGlu7. As to conditions: HEK-293 cells expressing hmGlu7; inhibition of EC80 L-AP4 response; mean of at least three independent experiments in duplicate; read-out: Ca^2+ Flux (mean IC50). An excerpt: mGlu7 Assay on HEK-Expressing Human mGlu7
The cDNA encoding the human metabotropic glutamate 7 receptor (hmGlu7), (accession number NM_181874.2, NCBI Nucleotide database browser), was subcloned into an expression vector containing also the hygromycin resistance gene. In parallel, the cDNA encoding a G protein allowing redirection of the activation signal to intracellular calcium flux was subcloned into a different expression vector containing also the Puromycin resistance gene. Transfection of both these vectors into HEK293 cells with PolyFect reagent (Qiagen) according to supplier's protocol, and hygromycin and puromycin treatment allowed selection of antibiotic resistant cells which had integrated stably one or more copies of the plasmids. Positive cellular clones expressing hmGlu7 were identified in a functional assay measuring changes in calcium fluxes in response to glutamate and L-AP4 or known mGlu7 orthosteric antagonists.
HEK-293 cells expressing hmGlu7 were maintained in media containing DMEM, Fetal Bovine Serum (10%), Glutamax™ (2 mM), penicillin (100 units/mL), streptomycin (100 μg/mL), geneticin (100 μg/mL) and hygromycin-B (40 μg/mL) and puromycin (1 μg/mL) at 37° C. with 5% CO2 in a humidified atmosphere.
Human mGlu7 HEK-293 cells were plated out 24 hours prior to a fluorescent cell-based calcium mobilization assay using FLIPR^384 assay (Molecular Device, Sunnyvale, CA, USA) in black-walled, clear-bottomed, poly-L-ornithine-coated 384-well plates at a density of 25,000 cells/well in a glutamine/glutamate free DMEM medium containing fetal bovine serum (10%), penicillin (100 units/mL), streptomycin (100 μg/mL) and doxycyline (1 μg/ml) at 37° C. with 5% CO2 in a humidified atmosphere.
On the day of the assay, the medium was aspirated and the cells were loaded with a 3 μM solution of Fluo4-AM (LuBioScience, Lucerne, Switzerland) in 0.03% pluronic acid. After 1 hour at 37° C./5% CO2, the non incorporated dye was removed by washing cell plate with the assay buffer. All assays were performed in a pH 7.4 buffered-solution containing 20 mM HEPES, 143 mM NaCl, 6 mM KCl, 1 mM MgSO4, 1 mM CaCl2, 0.125 mM sulfinpyrazone and 0.1% glucose.
After 10 s of basal fluorescence recording, various concentrations of the compounds of the invention were added to the cells. Changes in fluorescence levels were first monitored for 180 s in order to detect any agonist activity of the compounds. Then the cells were stimulated by an EC80 L-AP4 concentration for an additional 110 s in order to measure inhibiting activities of the compounds of the invention. EC80 L-AP4 concentration is the concentration giving 80% of the maximal glutamate response.
The concentration-response curves of L-AP4 or representative compounds of the present invention were generated using the Prism GraphPad software (Graph Pad Inc, San Diego, USA). The curves were fitted to a four-parameter logistic equation:
(Y=Bottom+(Top−Bottom)/(1+10^((Log IC50−X)*Hill Slope)
allowing determination of IC50 values.
The Table 3 below represents the mean IC50 obtained from at least three independent experiments of selected molecules performed in duplicate.
Background: Calcium assays in cells follow changes in intracellular calcium, usually with a dye or a luminescent sensor.
With `Cc1ccc(C2CCc3nn(-c4ccccn4)c(=O)n3C2)c(C)c1` (single isomer, unassigned; (+)) [Compound 1-18, (+)6-(2,4-dimethylphenyl)-2-(pyridin-2-yl)-5,6,7,8-tetrahydro-[1,2,4]triazolo[4,3-a]pyridin-3(2H)-one], the IC50 is under 100 nM.
Regarding `COc1ccc(C2CCc3nn(-c4ccccn4)c(=O)n3C2)c(C)c1` (stereo not shown) [Compound 1-22, 6-(4-methoxy-2-methylphenyl)-2-(pyridin-2-yl)-5,6,7,8-tetrahydro-[1,2,4]triazolo[4,3-a]pyridin-3(2H)-one], the IC50 lay within 100 to 1000 nM.
The same measure for `COc1cccc(-c2ccc3nn(-c4ncccn4)c(=O)n3c2)c1C` [Compound 1-11, 6-(3-methoxy-2-methylphenyl)-2-(pyrimidin-2-yl)-[1,2,4]triazolo[4,3-a]pyridin-3(2H)-one]: 100 to 1000 nM; for `O=c1n(-c2ncccn2)nc2ccc(-c3cccc(N4CCC4)c3)cn12` [Compound 1-6, 6-(3-(azetidin-1-yl)phenyl)-2-(pyrimidin-2-yl)-[1,2,4]triazolo[4,3-a]pyridin-3(2H)-one]: 100 to 1000 nM; for `COc1ccc(-c2ccc3nn(-c4ncccn4)c(=O)n3c2)c(C)c1` [Compound 1-21, 6-(4-methoxy-2-methylphenyl)-2-(pyrimidin-2-yl)-[1,2,4]triazolo[4,3-a]pyridin-3(2H)-one]: 1000 to 10000 nM.
The same measure for `COc1ccc(C2CCc3nn(-c4ccccn4)c(=O)n3C2)cc1` (stereo not shown) [Compound 1-16, 6-(4-methoxyphenyl)-2-(pyridin-2-yl)-5,6,7,8-tetrahydro-[1,2,4]triazolo[4,3-a]pyridin-3(2H)-one]: 1000 to 10000 nM; for `COc1ccccc1-c1ccc2nn(-c3ccccn3)c(=O)n2c1` [Compound 1-19, 6-(2-methoxyphenyl)-2-(pyridin-2-yl)-[1,2,4]triazolo[4,3-a]pyridin-3(2H)-one]: 1000 to 10000 nM; for `O=c1n(-c2ccccn2)nc2ccc(-c3cccc(N4CCC4)c3)cn12` [Compound 1-4, 6-(3-(azetidin-1-yl)phenyl)-2-(pyridin-2-yl)-[1,2,4]triazolo[4,3-a]pyridin-3(2H)-one]: 100 to 1000 nM.
Take `COc1cccc(C2CCc3nn(-c4ccccn4)c(=O)n3C2)c1` (stereo not shown) [Compound 1-8, 6-(3-methoxyphenyl)-2-(pyridin-2-yl)-5,6,7,8-tetrahydro-[1,2,4]triazolo[4,3-a]pyridin-3(2H)-one]: the IC50 lay within 1000 to 10000 nM.
The value for `COc1cccc(-c2ccc3nn(-c4ccccn4)c(=O)n3c2)c1C` [Compound 1-9, 6-(3-methoxy-2-methylphenyl)-2-(pyridin-2-yl)-[1,2,4]triazolo[4,3-a]pyridin-3(2H)-one] was under 100 nM.
The same measure for `Cc1ccc(-c2ccc3nn(-c4ncccn4)c(=O)n3c2)c(C)c1` [Compound 1-2, 6-(2,4-dimethylphenyl)-2-(pyrimidin-2-yl)-[1,2,4]triazolo[4,3-a]pyridin-3(2H)-one]: 100 to 1000 nM; for `COc1ccc(-c2ccc3nn(-c4ccccn4)c(=O)n3c2)c(C)c1` [Compound 1-20, 6-(4-methoxy-2-methylphenyl)-2-(pyridin-2-yl)-[1,2,4]triazolo[4,3-a]pyridin-3(2H)-one]: 100 to 1000 nM; for `O=c1n(-c2ccccn2)nc2ccc(-c3cccc(OC4CC4)c3)cn12` [Compound 1-13, 6-(3-cyclopropoxyphenyl)-2-(pyridin-2-yl)-[1,2,4]triazolo[4,3-a]pyridin-3(2H)-one]: 100 to 1000 nM.
The same measure for `Cc1ccc(C2CCc3nn(-c4ccccn4)c(=O)n3C2)c(C)c1` (single isomer, unassigned; (-)) [Compound 1-17, (−)6-(2,4-dimethylphenyl)-2-(pyridin-2-yl)-5,6,7,8-tetrahydro-[1,2,4]triazolo[4,3-a]pyridin-3(2H)-one]: 1000 to 10000 nM; for `COc1cccc(-c2ccc3nn(-c4ncccn4)c(=O)n3c2)c1` [Compound 1-7, 6-(3-methoxyphenyl)-2-(pyrimidin-2-yl)-[1,2,4]triazolo[4,3-a]pyridin-3(2H)-one]: 1000 to 10000 nM.
In the case of `COc1cccc(-c2ccc3nn(-c4ccccn4)c(=O)n3c2)c1` [Compound 1-5, 6-(3-methoxyphenyl)-2-(pyridin-2-yl)-[1,2,4]triazolo[4,3-a]pyridin-3(2H)-one], the IC50 was in the range of 100 to 1000 nM.
The same measure for `COc1ccc(-c2ccc3nn(-c4ccccn4)c(=O)n3c2)cc1` [Compound 1-15, 6-(4-methoxyphenyl)-2-(pyridin-2-yl)-[1,2,4]triazolo[4,3-a]pyridin-3(2H)-one]: 1000 to 10000 nM.
As for `COc1cccc(C2CCc3nn(-c4ccccn4)c(=O)n3C2)c1C` (stereo not shown) [Compound 1-10, 6-(3-methoxy-2-methylphenyl)-2-(pyridin-2-yl)-5,6,7,8-tetrahydro-[1,2,4]triazolo[4,3-a]pyridin-3(2H)-one], the IC50 lay in the range of 100 to 1000 nM.
The same measure for `O=c1n(-c2ncccn2)nc2ccc(-c3cccc(OC4CC4)c3)cn12` [Compound 1-12, 6-(3-cyclopropoxyphenyl)-2-(pyrimidin-2-yl)-[1,2,4]triazolo[4,3-a]pyridin-3(2H)-one]: 100 to 1000 nM; for `Cc1ccc(C2CCc3nn(-c4ccccn4)c(=O)n3C2)c(C)c1` (stereo not shown) [Compound 1-3, 6-(2,4-dimethylphenyl)-2-(pyridin-2-yl)-5,6,7,8-tetrahydro-[1,2,4]triazolo[4,3-a]pyridin-3(2H)-one]: under 100 nM.
The same measure for `Cc1ccc(-c2ccc3nn(-c4ccccn4)c(=O)n3c2)c(C)c1` [Compound 1-1, 6-(2,4-dimethylphenyl)-2-(pyridin-2-yl)-[1,2,4]triazolo[4,3-a]pyridin-3(2H)-one]: under 100 nM; for `O=c1n(-c2ccccn2)nc2n1CC(c1cccc(OC3CC3)c1)CC2` (stereo not shown) [Compound 1-14, 6-(3-cyclopropoxyphenyl)-2-(pyridin-2-yl)-5,6,7,8-tetrahydro-[1,2,4]triazolo[4,3-a]pyridin-3(2H)-one]: 100 to 1000 nM.

The values above are taken from patent US20260200911A1, “NOVEL COMPOUNDS” (Neurosterix Pharma Sarl., priority 2022, published 2026).
